The values that follow come from US20100124555A1, “Compositions and Methods for Treating Pancreatic Tumors” (UNIVERSITE DE LA MEDITERRANEE, priority 2007, published 2010).

Where only a bound is given, the exact number is not on record here.

Experiment [1] concerns SOJ-6 cells. Description: Nuclear staining with DAPI (nuclear fragmentation). It counts as cell-based, human. The following applies: RPMI induced no apoptosis. Here is the method:
After treatment with mAb16D10 or cisplatin, cells were washed in ice-cold PBS, fixed and permeablized with 70% ethanol for 5 min at […] and staining with diluted 1/1000 DAPI solution in PBS for 1 min at room temperature. The cells were then washed with PBS. The nuclear morphology of cells was examined by fluorescence microscopy.

The next experiment relates to PANC-1 cells. The experiment in a line: MTT cell growth and proliferation assay, PANC-1. It counts as cell-based, human. The following applies: PANC-1, 24 hours, gemcitabine 0 to 10 μM or cisplatin 0 to 40 μM. As for the experimental part: (§1) Cell proliferation was determined using MTT assay as previously described (Mosmann et al., 1983 J Immunol Methods, 65(1-2):55-63). Briefly, cells were seeded at subconfluence in appropriate complete media containing 10% FCS in 96-well culture plates. Media were replaced for 24 h by fresh media with 10% inactivated FCS, including increasing concentrations of antibodies directed against FAPP (pAbL64, mAbJ28 and mAb16D10). Cells were washed with PBS and incubated with 100 μl of MTT (0.5 mg/ml) in complete media for 3 h, washed with PBS and finally incubated with DMSO for 30 min at 37° C. Cell growth was determined by measuring absorbance at 550 nm using a MR 5000 microplate spectrophotometer. All independent determinations were done in triplicate and compared to control.

Experiment [2] concerns Bcl-2, Bax, caspases 8 and 9, PARP in SOJ-6 cells. The experiment in a line: SDS-PAGE and western blot of apoptosis proteins. The following applies: SOJ-6, 24 hours. The format is cell-based, human. As for the experimental part:
SOJ-6 cells were grown in 6-well culture plates in RPMI 1640 medium with 10% FCS. At subconfluency, the medium was removed and replaced for 24 hours by fresh RPMI medium with 10% inactivated FCS. SOJ-6 cells were then incubated with mAb16D10 or Cisplatin for 24 hours. At the end of incubation, cells were washed three times with ice-cold PBS (without […] and Mg^++) harvested and pelleted by centrifugation. Pellets were washed twice and lysed at 4° C. in 0.5 ml of lysis buffer (10 mM Tris-HCl pH 7.4, 150 mM NaCl, 1% Triton X-100, 1 mM benzamidine and phosphatase inhibitors). After lysis, homogenates were clarified by centrifugation at 10,000 g for 10 min at 4° C. An aliquot was saved for protein determination using the bicinchoninic acid assay (Pierce, Rockford, Ill.). Proteins (50 μg/lane) in reducing SDS buffer were separated onto 10, 12, or 15% polyacrylamide with 0.1% SDS (according to the molecular weight range of proteins to be separated). After electrophoretic migration, proteins were silver stained. Alternatively, proteins were transferred onto nitrocellulose membranes using a Mini Transblot electrophoretic cell (BioRad, Hercule, Oreg.), and transferred proteins were immunodetected by using appropriate primary and secondary antibodies. After washes, membranes were developed with a chemoluminescent substrate according to the manufacturer's instructions (Roche Diagnostics, Switzerland). In each experiment, a control was included by omitting primary antibodies or by using a non-immune serum.
In general terms: In western blotting, separated proteins are transferred to a membrane and probed.

For experiment [3], the system named is 16D10 epitope on the BSDL/FAPP polypeptide of SOJ-6 cells. The experiment in a line: 16D10 epitope expression on drug-treated cells (immunofluorescence and flow cytometry). The format is cell-based, human. The following applies: for cell morphology of drug-treated cells: SOJ-6, immunofluorescence; for 16D10 staining by immunofluorescence of drug-treated cells: SOJ-6 on glass slides; for Average (16D10 binding, flow cytometry) / 16D10 epitope expression: SOJ-6 treated with 20 μM cisplatin or 5 μM gemcitabine; for Average (16D10 binding, flow cytometry): control 418.7 +/− 50.5; for 16D10 epitope expression: change versus control. For orientation: A flow cytometer gives signals particle by particle.
Experimental: Antibody 16D10 binding to SOJ-6 cells following treatment with chemotherapeutic agents was tested in order to assess whether gemcitabine or cisplatin affect the expression of the 16D10 epitope on the BSDL/FAPP polypeptide. Antibody 16D10 binding was assessed by immunofluorescence and flow cytometry following treatment of SOJ-6 cells with 20 μM cisplatin or 5 μM gemcitabine.
For immunofluorescence, SOJ-6 cells were cultured on glass slides and treated or not with gemcitabine or cisplatin, fixed and incubated in the presence of 16D10 and a secondary antibody coupled to fluorescein. Slides were assessed with fluorescence microscope.

For experiment [4], the system named is SOJ-6 cells. Description: MTT cell growth and proliferation assay, SOJ-6. It counts as cell-based, human. The following applies: SOJ-6, 24 hours, gemcitabine 0 to 10 μM or cisplatin 0 to 40 μM.
The test system of experiment [5] is SOJ-6 cells. The experiment in a line: MTT cell growth and proliferation assay, SOJ-6. It counts as cell-based, human. The following applies: SOJ-6 treated with raft-disrupting drug or glycosphingolipid biosynthesis inhibitor (10 μM), with mAb16D10. As for the experimental part: as §1
Another experiment concerns pancreatic cancers. The following applies: patients with pancreatic cancer; cited from earlier work.
The test system of experiment [6] is SOJ-6 cells. Description: Apoptosis by caspase activity (CaspACE FITC-VAD-fmk in situ marker). The format is cell-based, human. The following applies: SOJ-6, 24 hours; 16D10 25 μg/ml, recombinant chimeric 16D10 5 μg/ml. As for the experimental part:
Cells grown in 8-well plates (Polystyrene vessel, BD Falcon) were treated with mAb16D10 or mouse IgM in RPMI with inactivated FCS for 24 hours prior to the addition of CaspACE FITC-VAD-fmk in situ marker (Promega) at a final concentration of 10 μM in the culture medium according to manufacturer's instructions. Then cells were washed in PBS, fixed for 15 minutes in 2% paraformaldehyde, and washed once again. Upon caspase action on FITC-VAD-fmk, apoptotic cells become fluorescent and the number of fluorescent cells was determined in triplicate on collections of 10 fields randomly examined under the fluorescent microscope.

For experiment [7], the target named is PANC-1. The experiment in a line: isotype control in indirect immunofluorescence flow cytometry (FL1-H) on PANC-1 cells (no FAPP); main peak near the negative control with a tail to about 100-200 FL1-H; antibody concentration not given; row 'Control -': Mean 4,60.
In experiment [8] the target is PANC-1. Description: isotype control in indirect immunofluorescence flow cytometry (FL1-H) on PANC-1 cells (no FAPP); antibody concentration not given; row 'Control -': Median 3,22.
In experiment [9] the target is feto-acinar pancreatic protein (FAPP), oncofetal glycoisoform of pancreatic bile salt-dependent lipase (BSDL), on the surface of SOJ-6 human pancreatic tumor cells (human) (UniProt P19835). Description: isotype control in indirect immunofluorescence flow cytometry (FL1-H) on SOJ-6 cells; antibody concentration not given; row 'Control -': Median 3,02.
feto-acinar pancreatic protein (FAPP), oncofetal glycoisoform of pancreatic bile salt-dependent lipase (BSDL), on the surface of SOJ-6 human pancreatic tumor cells (human), sequence (P19835 21-753): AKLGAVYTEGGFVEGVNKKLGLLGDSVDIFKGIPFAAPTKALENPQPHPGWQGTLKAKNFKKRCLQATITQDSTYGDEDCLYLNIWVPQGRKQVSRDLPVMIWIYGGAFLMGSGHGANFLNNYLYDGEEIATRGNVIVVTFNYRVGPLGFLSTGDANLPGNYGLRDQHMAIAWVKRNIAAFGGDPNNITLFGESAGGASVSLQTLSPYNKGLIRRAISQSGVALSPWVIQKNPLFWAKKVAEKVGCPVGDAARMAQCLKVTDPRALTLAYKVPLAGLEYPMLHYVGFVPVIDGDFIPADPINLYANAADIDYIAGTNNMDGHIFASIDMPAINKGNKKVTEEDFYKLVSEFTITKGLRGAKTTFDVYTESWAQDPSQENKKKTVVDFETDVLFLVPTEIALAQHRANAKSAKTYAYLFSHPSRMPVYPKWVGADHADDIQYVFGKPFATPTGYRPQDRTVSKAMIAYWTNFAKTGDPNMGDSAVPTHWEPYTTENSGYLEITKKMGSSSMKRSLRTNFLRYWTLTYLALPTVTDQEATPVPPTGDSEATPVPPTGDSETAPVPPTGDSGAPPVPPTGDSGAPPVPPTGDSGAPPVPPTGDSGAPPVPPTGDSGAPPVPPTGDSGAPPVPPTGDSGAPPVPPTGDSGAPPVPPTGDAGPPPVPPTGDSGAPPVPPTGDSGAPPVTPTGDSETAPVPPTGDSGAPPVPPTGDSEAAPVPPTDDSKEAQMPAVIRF
The target is the same in experiment [10]. The experiment in a line: isotype control in indirect immunofluorescence flow cytometry (FL1-H) on SOJ-6 cells; broad histogram from about 2 to about 300 FL1-H, between the negative control and mAb16D10; antibody concentration not given; row 'Control -': Mean 3,43.
The test system of a further experiment is NK cells. Description: NK cell activation (ADCC): CD107 mobilization and IFN-γ production by flow cytometry. It counts as cell-based, human. The following applies: presence of SOJ-6 cells. As for the experimental part:
Thawed purified human NK cells stimulated or not overnight with 100 UI/mL of IL-2 were mixed with SOJ-6 or B221 cell lines at an effector/target ratio equal to 1, alone or in the presence of rec16D10 (30 μg/mL) or rituxan (10 μg/mL). Cells were then incubated for 4 hours at 37° C. in the presence of FITC conjugated anti-CD107 mAbs (Becton Dickinson) and monensin (sigma). After incubation, cells were washed in PBS containing 2 mM EDTA to disrupt cell conjugates and stained for extracellular markers (PC5 conjugated anti-CD56 and PC7 conjugated anti-CD3 purchased from Beckman coulter). Cells were then fixed and permeabilized using IntraPrep reagent (Beckman Coulter). […] Samples were then analysed on FACScanto (Becton Dickinson).
The chimeric antibody rec16D10 (30 μg/ml) was incubated with target SOJ-6 cells together with NK cells, with or without overnight treatment with IL-2 (100 U/ml) (FIG. 19). As a control, the Rituxan antibody (10 μg/ml) was used with target B221 cells. Effector cells and target cells were used at a ratio of: 1/1 (100000 NK/well). Thawed purified NK cells from two donors (NK1 and NK2) were incubated with the antibodies and target cells. Activation of NK cells was examined by virtue of CD 107 staining and IFN-γ secretion. […] Under similar conditions, approximately 30% of NK1 and NK2 cells secreted IFN-γ (vs. less than 16% and 13% in the absence of antibody or with Rituxan in NK1 and NK2 cells, respectively) (FIG. 21).

For experiment [11], the system named is SOJ-6 cells. The experiment in a line: Annexin V / PI apoptosis assay. It counts as cell-based, human. The following applies: antibodies 20 μg/ml, tunicamycin 25 or 50 μg/ml. As for the experimental part: SOJ-6 cells (20.10^4 cells per well) were seeded onto 24 wells plates 72H before to start the experiment. Cells were incubated either with 20 μg/ml 16D10 IgM, or 20 μg/ml of a further recombinant 16D10 IgG1 antibody which contained the 16D10 variable regions linked fused to a human IgG1 constant region and human kappa light region for the heavy and light chains respectively, 25 μg/ml Tunicamycin or 50 μg/ml Tunicamycin. The AnnexinV/PI stainings were performed after 24H of culture using the AnnexinV-FITC Apoptosis Detection Kit I (BD Pharmingen) according to the manufacturer instructions. Stainings were acquired on a FACScan (Becton Dickinson, San Jose, Calif.) and results were analysed using FlowJo Software.

In the case of `N.N.[Cl][Pt][Cl]` [Cisplatin, cis-diaminedichloridoplatinum(II)], the “apoptosis observed by DAPI staining (nuclear fragmentation)” value in the experiment on SOJ-6 cells [1] is reported as “low level of apoptosis”. The “proliferation by MTT assay” value with PANC-1 cells is listed as “dose dependent decrease in proliferation is seen for both cell lines”. For the same compound, the “activation of caspase 9 and PARP (immunodetection)” value in [2] was “activated”. The “16D10 surface binding of drug-treated cells (flow cytometry, in words)” value in experiment [3] (SOJ-6) was “decrease in expression of the 16D10 epitope”. For the same compound, in [3], the “cell morphology of drug-treated cells” value is recorded as “clear morphological changes”; the “16D10 staining by immunofluorescence of drug-treated cells” value was “showed staining with 16D10”; the “Average (16D10 binding, flow cytometry)” value was 324.6 +/− 26.3; the 16D10 epitope expression was −32.5. In addition, the “proliferation by MTT assay” value in the experiment with SOJ-6 cells [4] is reported as “dose dependent decrease in proliferation is seen for both cell lines”.
As to `CCCCC[C@@H](O)[C@H]1C(=O)O[C@H](C)[C@@H](O)/C=C/C=C/C=C/C=C/C=C(\C)[C@@H](O)C[C@H](O)C[C@H](O)C[C@H](O)C[C@H](O)C[C@H](O)C[C@@H]1O` [Filipin], the “influence on the antiproliferative effect of mAb16D10” value (“influence” below) in the experiment on SOJ-6 cells [5] is given as “decreased”.
For the compound `CCCC[C@@H](C)[C@@H](OC(=O)C[C@@H](CC(=O)O)C(=O)O)[C@H](C[C@@H](C)C[C@H](O)CCCC[C@@H](O)C[C@H](O)[C@H](C)N)OC(=O)C[C@@H](CC(=O)O)C(=O)O` [Fumonisin 1, Fumonisin B1], the “influence” value in the experiment on SOJ-6 cells [5] was “neither L-cyclo-serine (LCS) (an inhibitor of serine palmitoyltransferase) nor Fumonisin 1 or 2 (both inhibitors of dihydroceramide synthetase) interfered”.
On the same count and under the same terms, next, `CCCC[C@@H](C)[C@@H](OC(=O)C[C@@H](CC(=O)O)C(=O)O)[C@H](C[C@@H](C)CCCCCC[C@@H](O)C[C@H](O)[C@H](C)N)OC(=O)C[C@@H](CC(=O)O)C(=O)O` [Fumonisin 2, Fumonisin B2]: “neither L-cyclo-serine (LCS) (an inhibitor of serine palmitoyltransferase) nor Fumonisin 1 or 2 (both inhibitors of dihydroceramide synthetase) interfered”.
For the compound `Nc1ccn(C2OC(CO)C(O)C2(F)F)c(=O)n1` (stereo not shown) [Gemcitabine, 4-amino-1-[3,3-difluoro-4-hydroxy-5-(hydroxymethyl)tetrahydrofuran-2-yl]-1H-pyrimidin-2-one], in the experiment on PANC-1 cells, the “proliferation by MTT assay” value is “relatively resistant to gemcitabine”. Moreover, the “improvement in survival at one year compared to untreated patients” value with pancreatic cancers was 18%. Further, the “apoptosis by caspase activity (number of apoptotic cells compared to control)” value in the experiment on SOJ-6 cells [6] was “induce apoptosis on SOJ-6 cells”. The “activation of caspase 9 and PARP (immunodetection)” value in experiment [2] is listed as “activated”. Moreover, in experiment [3], the “cell morphology of drug-treated cells” value is reported as “clear morphological changes”; the “16D10 staining by immunofluorescence of drug-treated cells” value was “showed staining with 16D10”; the “Average (16D10 binding, flow cytometry)” value is 419.0 +/− 36.2; the 16D10 epitope expression is on record as 0. Moreover, the “proliferation by MTT assay” value in the experiment with SOJ-6 cells [4] was “a decrease in proliferation is seen only in SOJ-6 cells”.
For `N[C@H]1CONC1=O` [L-cyclo-serine], in the experiment with SOJ-6 cells [5], the “influence” value was “neither L-cyclo-serine (LCS) (an inhibitor of serine palmitoyltransferase) nor Fumonisin 1 or 2 (both inhibitors of dihydroceramide synthetase) interfered”.
Regarding `CCCCCCCCCC(=O)NC(CN1CCOCC1)C(O)c1ccccc1` (stereo not shown) [PDMP, Phenyl-2-decanoylamino-3-morpholino-1-propanol], in the experiment with SOJ-6 cells [5], the “influence” value is recorded as “impaired the effect of mAb16D10 on SOJ-6 cell proliferation”.
On to IgM mouse SIGMA (antibody), for which the Mean was 13 with PANC-1 [7] and 86.7 in [10]. Moreover, the Median with PANC-1 [8] is 4.61; in [9], 19.8.
Consider “Rituxan: Rituxan antibody used as a control with target B221 cells [reference compound]”, for which, in the experiment on NK cells (donor NK1, IL-2 treated), the “NK1 cells secreting IFN-γ” value is given as “less than 16%”. Moreover, in the experiment on NK cells (donor NK1, IL-2 treated, E/T 1/1, rec16D10 30 μg/ml, Rituxan 10 μg/ml), the “CD 107-positive staining of NK1 cells” value was less than 30%. In addition, in the experiment with NK cells (donor NK2, IL-2 treated), the “NK2 cells secreting IFN-γ” value is reported as less than 13%. Also, the “CD 107-positive staining of NK2 cells” value with NK cells (donor NK2, IL-2 treated, E/T 1/1, rec16D10 30 μg/ml, Rituxan 10 μg/ml) was less than 20%.
For the compound methyl-β-cyclodextrin, the “influence” value is listed as “decreased” in the experiment with SOJ-6 cells [5] and “decreases or abolishes the cell growth inhibiting activity of antibody 16D10” in the experiment with SOJ-6 cells [5] (listed as MBCD).
In the case of tunicamycin [reference compound], in the experiment with SOJ-6 cells [11], the “apoptosis by Annexin V and Annexin V/PI staining” value is reported as “induced significant levels of apoptosis”.
